Here are results for 5 molecules from paper PMC9866314 (Viruses, 2022).

The nature of data set [1]: in vitro. Particulars: hamster.
In data set [2] the test system is FMDV serotype A (NP05). As to the kind of experiment: microbe, parasite or virus in culture. The class given is cell-based. Particulars: Foot-and-mouth disease virus; for EC50: BHK-21, read-out: Antiviral Activity EC50; for EC90: BHK-21, read-out: Antiviral Activity EC90.
The subject of data set [3] is RD114 glycoprotein (RD114pp) of endogenous feline retrovirus. Particulars: read-out: IC50 against RD114pp; cited from earlier work.

In the case of `CCOC(=O)/C=C/[C@H](C[C@@H]1CCNC1=O)NC(=O)[C@@H](CC(=O)[C@@H](NC(=O)c1cc(C)on1)C(C)C)Cc1ccc(F)cc1` [Rupintrivir, reference compound], the CC50 in data set [1] was > 100 µM. Also, in data set [2], the EC50 amounted to 2.02 ± 0.3 µM and the EC90 worked out at 12.1 ± 1.6 µM.
As to `CO[C@@H]1C[C@@H](C[C@H]2CC[C@H](C)[C@H]([C@@H](C)C(=O)O)O2)O[C@]2(O[C@](C)([C@H]3CC[C@@](C)([C@@H]4O[C@@H]([C@H]5O[C@@](O)(CO)[C@H](C)C[C@@H]5C)C[C@@H]4C)O3)C[C@H]2C)[C@@H]1C` [NSC292567, Pandavir/Nigericin], the CC50 in data set [1] is 49.9 ± 1.7 µM. Further, in data set [2], the EC50 turned out to be 0.42 ± 0.08 µM and the EC90 was found to be 3.85 ± 0.34 µM.
The like results for `NC(=O)c1ncn([C@@H]2O[C@H](CO)[C@@H](O)[C@H]2O)n1` [Ribavirin, 1-β-d-ribofuranosyl-1,2,4-triazole-3-carboxamide, reference compound] were, in that order, > 100 µM, 42.89 ± 0.42 µM and 393.6 ± 2.56 µM.
For the molecule `O=C1CCCc2cc3c(cc21)CC1(C3)Cc2cc3c(cc2C1)C(=O)CCC3` [NSC670283, 2,2′-spirobi [3,6,7,8-tetrahydro-1H-cyclopenta[g]naphthalene]-5,5′-dione], the CC50 in data set [1] is > 100 µM. Moreover, in data set [3], the IC50 was 3 µM. In addition, in data set [2], the EC50 is 3.38 ± 1.02 µM and the EC90 is 30.45 ± 0.25 µM.
Turning to `CC1=CC(C)(C)Nc2ccc(Cc3ccc4c(c3)C(C)=CC(C)(C)N4)cc21` [NSC217697, 6,6′-methylene bis(2,2,4-trimethyl-1,2-dihydroquinoline)], the CC50 in data set [1] was > 100 µM. In data set [2], the concentration giving a half-maximal response (EC50) came out at 0.78 ± 0.1 µM and the EC90 amounted to 9.52 ± 0.18 µM.
